Reference: PubChem BioAssay AID1845200 (Molecular Pharmacology Branch, DTP, NCI, 2023)

Test system: ASPS-1 complex tumor spheroids, viability
Test: Anticancer human tumor ASPS-1 cell line growth inhibition;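 also: spheroids exposed to agents for 7 days after 3 days of growth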;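 as to viability, T/C: 100% = DMSO vehicle treated spheroids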
Details: for IC50: curve of first compound; for viability, T/C: stronger effect = lower value
Procedure, shortened: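 Complex tumor spheroids combined malignant cells with endothelial cells and mesenchymal stem cells. DNA-damaging drugs and DNA repair inhibitors were tested alone and in combination, at half-log dilutions down from clinical Cmax (top 10 microM if Cmax unknown), 0.25% DMSO final.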

[1] = second compound 0.003 µM, first compound 0.0316 µM
[2] = second compound 0.003 µM, first compound 0.1 µM
[3] = second compound 0.003 µM, first compound 0.316 µM
[4] = second compound 0.003 µM, first compound 1 µM
[5] = second compound 0.003 µM, first compound 3.16 µM
[6] = second compound 0.003 µM, first compound 10 µM
[7] = second compound 0.00949 µM, first compound 0.0316 µM
[8] = second compound 0.00949 µM, first compound 0.1 µM
[9] = second compound 0.00949 µM, first compound 0.316 µM
[10] = second compound 0.00949 µM, first compound 1 µM
[11] = second compound 0.00949 µM, first compound 3.16 µM
[12] = second compound 0.00949 µM, first compound 10 µM
[13] = second compound 0.03 µM, first compound 0.0316 µM
[14] = second compound 0.03 µM, first compound 0.1 µM
[15] = second compound 0.03 µM, first compound 0.316 µM
[16] = second compound 0.03 µM, first compound 1 µM
[17] = second compound 0.03 µM, first compound 3.16 µM
[18] = second compound 0.03 µM, first compound 10 µM
[19] = second compound 0.0949 µM, first compound 0.0316 µM
[20] = second compound 0.0949 µM, first compound 0.1 µM
[21] = second compound 0.0949 µM, first compound 0.316 µM
[22] = second compound 0.0949 µM, first compound 1 µM
[23] = second compound 0.0949 µM, first compound 3.16 µM
[24] = second compound 0.0949 µM, first compound 10 µM
[25] = second compound 0.3 µM, first compound 0.0316 µM
[26] = second compound 0.3 µM, first compound 0.1 µM
[27] = second compound 0.3 µM, first compound 0.316 µM
[28] = second compound 0.3 µM, first compound 1 µM
[29] = second compound 0.3 µM, first compound 3.16 µM
[30] = second compound 0.3 µM, first compound 10 µM

COc1ccc([C@@H](O)c2cc(-c3ncnc4cc(N5CCOCC5)ccc34)c(F)cc2Cl)nn1 + CC[C@@]1(O)C(=O)OCc2c1cc1n(c2=O)Cc2cc3c(CN(C)C)c(O)ccc3nc2-1
IC50 (second compound 0.003 µM): 8870 nM
IC50 (second compound 0.00949 µM): 6690 nM
IC50 (second compound 0.03 µM): 3020 nM
IC50 (second compound 0.0949 µM): 330 nM
IC50 (second compound 0.3 µM): 214 nM
viability, T/C [1]: 110%
viability, T/C [2]: 106%
viability, T/C [3]: 101%
viability, T/C [4]: 98.1%
viability, T/C [5]: 80.3%
viability, T/C [6]: 46.1%
viability, T/C [7]: 104%
viability, T/C [8]: 104%
viability, T/C [9]: 101%
viability, T/C [10]: 90.2%
viability, T/C [11]: 66.6%
viability, T/C [12]: 41.1%
viability, T/C [13]: 82%
viability, T/C [14]: 87.9%
viability, T/C [15]: 82.8%
viability, T/C [16]: 73.8%
viability, T/C [17]: 49.1%
viability, T/C [18]: 31.9%
viability, T/C [19]: 56.1%
viability, T/C [20]: 54.7%
viability, T/C [21]: 50.6%
viability, T/C [22]: 31.4%
viability, T/C [23]: 22.7%
viability, T/C [24]: 26.1%
viability, T/C [25]: 62.5%
viability, T/C [26]: 58.4%
viability, T/C [27]: 45.7%
viability, T/C [28]: 32.4%
viability, T/C [29]: 23.9%
viability, T/C [30]: 16.4%

COc1cc(C)[nH]c(=O)c1CN1CCc2c(Cl)cc(C(OC)C3COC3)c(Cl)c2C1=O (stereo not given) + CC[C@@]1(O)C(=O)OCc2c1cc1n(c2=O)Cc2cc3c(CN(C)C)c(O)ccc3nc2-1
IC50 (second compound 0.003 µM): > 10000 nM
IC50 (second compound 0.00949 µM): > 10000 nM
IC50 (second compound 0.03 µM): > 10000 nM
IC50 (second compound 0.0949 µM): > 10000 nM
IC50 (second compound 0.3 µM): > 10000 nM
viability, T/C [1]: 107%
viability, T/C [2]: 111%
viability, T/C [3]: 99.3%
viability, T/C [4]: 98.7%
viability, T/C [5]: 99.9%
viability, T/C [6]: 101%
viability, T/C [7]: 112%
viability, T/C [8]: 110%
viability, T/C [9]: 107%
viability, T/C [10]: 98.9%
viability, T/C [11]: 98.9%
viability, T/C [12]: 98.8%
viability, T/C [13]: 84.6%
viability, T/C [14]: 89.1%
viability, T/C [15]: 88.8%
viability, T/C [16]: 87.2%
viability, T/C [17]: 91.3%
viability, T/C [18]: 82.8%
viability, T/C [19]: 61.8%
viability, T/C [20]: 61.7%
viability, T/C [21]: 60.2%
viability, T/C [22]: 62.7%
viability, T/C [23]: 58.4%
viability, T/C [24]: 59.3%
viability, T/C [25]: 69.7%
viability, T/C [26]: 64.8%
viability, T/C [27]: 69.2%
viability, T/C [28]: 64.9%
viability, T/C [29]: 64.2%
viability, T/C [30]: 65.7%

CNCc1ccc(-c2cc(-c3nc(-c4ccc(S(=O)(=O)C(C)C)cc4)cnc3N)on2)cc1 + CC[C@@]1(O)C(=O)OCc2c1cc1n(c2=O)Cc2cc3c(CN(C)C)c(O)ccc3nc2-1
IC50 (second compound 0.003 µM): 478 nM
IC50 (second compound 0.00949 µM): 412 nM
IC50 (second compound 0.03 µM): 256 nM
IC50 (second compound 0.0949 µM): 19.6 nM
IC50 (second compound 0.3 µM): < 9.49 nM
viability, T/C (second compound 0.003 µM, first compound 0.00949 µM): 102%
viability, T/C (second compound 0.003 µM, first compound 0.03 µM): 103%
viability, T/C (second compound 0.003 µM, first compound 0.0949 µM): 98.8%
viability, T/C (second compound 0.003 µM, first compound 0.3 µM): 60.8%
viability, T/C (second compound 0.003 µM, first compound 0.949 µM): 30.8%
viability, T/C (second compound 0.003 µM, first compound 3 µM): 5.94%
viability, T/C (second compound 0.00949 µM, first compound 0.00949 µM): 104%
viability, T/C (second compound 0.00949 µM, first compound 0.03 µM): 108%
viability, T/C (second compound 0.00949 µM, first compound 0.0949 µM): 107%
viability, T/C (second compound 0.00949 µM, first compound 0.3 µM): 54.5%
viability, T/C (second compound 0.00949 µM, first compound 0.949 µM): 30.2%
viability, T/C (second compound 0.00949 µM, first compound 3 µM): 5.23%
viability, T/C (second compound 0.03 µM, first compound 0.00949 µM): 97.1%
viability, T/C (second compound 0.03 µM, first compound 0.03 µM): 105%
viability, T/C (second compound 0.03 µM, first compound 0.0949 µM): 90.5%
viability, T/C (second compound 0.03 µM, first compound 0.3 µM): 41.9%
viability, T/C (second compound 0.03 µM, first compound 0.949 µM): 25.3%
viability, T/C (second compound 0.03 µM, first compound 3 µM): 10.3%
viability, T/C (second compound 0.0949 µM, first compound 0.00949 µM): 54.1%
viability, T/C (second compound 0.0949 µM, first compound 0.03 µM): 45.6%
viability, T/C (second compound 0.0949 µM, first compound 0.0949 µM): 41.8%
viability, T/C (second compound 0.0949 µM, first compound 0.3 µM): 29%
viability, T/C (second compound 0.0949 µM, first compound 0.949 µM): 22.4%
viability, T/C (second compound 0.0949 µM, first compound 3 µM): 2.96%
viability, T/C (second compound 0.3 µM, first compound 0.00949 µM): 44.9%
viability, T/C (second compound 0.3 µM, first compound 0.03 µM): 38.3%
viability, T/C (second compound 0.3 µM, first compound 0.0949 µM): 26.9%
viability, T/C (second compound 0.3 µM, first compound 0.3 µM): 23.4%
viability, T/C (second compound 0.3 µM, first compound 0.949 µM): 23.7%
viability, T/C (second compound 0.3 µM, first compound 3 µM): 7.06%
